Assay results from article PMC2894482 (Journal of medicinal chemistry, 2009).

Experiments:
[1] = tested on: cocaine self-administration; settings: cited from earlier work
mGluR5 [2] = biological target: T1, mGluR5 (Rattus norvegicus, UniProt P31424); format: binding; settings: alkyne 11 vs similarly substituted amide 34
rats = assay: Preliminary in vivo testing in rats; settings: personal communication with Dr. S. Barak Caine
mGluR5 [3] = biological target: T1, mGluR5; assay: mGluR5 radioligand binding with [3H]1, rat brain membranes
rat mGluR5 = rat mGluR5 (Rattus norvegicus, UniProt P31424); assay: Calcium fluorescence assay; format: cell-based
Chain of rat mGluR5 (P31424 21-1203): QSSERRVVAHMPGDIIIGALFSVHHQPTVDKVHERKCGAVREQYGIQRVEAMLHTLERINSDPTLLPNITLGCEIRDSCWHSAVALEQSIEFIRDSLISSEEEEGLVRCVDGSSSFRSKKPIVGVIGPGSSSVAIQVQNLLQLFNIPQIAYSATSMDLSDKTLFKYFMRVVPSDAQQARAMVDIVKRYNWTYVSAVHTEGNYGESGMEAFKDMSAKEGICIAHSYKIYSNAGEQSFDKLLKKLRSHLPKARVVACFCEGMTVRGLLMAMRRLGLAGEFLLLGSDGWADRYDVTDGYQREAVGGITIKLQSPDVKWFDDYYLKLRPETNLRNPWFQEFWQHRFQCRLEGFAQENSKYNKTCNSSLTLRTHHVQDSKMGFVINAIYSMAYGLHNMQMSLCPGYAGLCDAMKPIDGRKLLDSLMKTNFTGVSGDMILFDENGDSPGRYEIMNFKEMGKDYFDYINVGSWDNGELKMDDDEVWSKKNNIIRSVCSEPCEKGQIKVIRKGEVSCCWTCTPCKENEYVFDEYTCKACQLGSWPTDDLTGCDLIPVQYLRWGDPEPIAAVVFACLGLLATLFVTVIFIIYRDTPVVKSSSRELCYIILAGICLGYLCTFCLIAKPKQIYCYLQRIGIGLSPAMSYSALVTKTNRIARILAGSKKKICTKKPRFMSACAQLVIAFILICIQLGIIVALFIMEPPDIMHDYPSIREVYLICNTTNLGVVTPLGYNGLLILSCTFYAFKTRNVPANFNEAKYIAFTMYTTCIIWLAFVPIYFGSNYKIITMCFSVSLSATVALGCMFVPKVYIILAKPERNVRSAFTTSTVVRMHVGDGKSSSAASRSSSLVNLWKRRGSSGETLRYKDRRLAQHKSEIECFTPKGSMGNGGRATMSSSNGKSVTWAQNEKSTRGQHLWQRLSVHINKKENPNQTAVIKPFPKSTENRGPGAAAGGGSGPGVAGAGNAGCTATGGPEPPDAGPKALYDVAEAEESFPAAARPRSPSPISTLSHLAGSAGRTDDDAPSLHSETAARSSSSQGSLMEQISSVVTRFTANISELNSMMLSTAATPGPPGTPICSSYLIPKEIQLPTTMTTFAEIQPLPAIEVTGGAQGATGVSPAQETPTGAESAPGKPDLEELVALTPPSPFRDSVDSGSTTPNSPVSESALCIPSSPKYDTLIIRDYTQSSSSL

T1 sequence (P31424 21-1203): as above

Ki (mGluR5 [3])	IC50 (rat mGluR5)	SMILES	also measured
		Cc1cccc(C#Cc2ccccc2)n1 [Compound 1, 2-methyl-6-(phenylethynyl)pyridine]	effect on cocaine self-administration [1]: dose-dependently decreases; effect on food intake ([1]; identical schedules of reinforcement): no effect
		Cc1nc(C#Cc2cc(F)cc(C#N)c2)cs1 [Compound 11, 3-Fluoro-5-cyano-1-(2-methylthiazol-4-ylethynyl)benzene]	fold higher affinity at mGluR5 than the amide (mGluR5 [2]): > 70 fold; toxicity in preliminary in vivo testing (rats): showed toxicity
4 ± 0.6 nM	3.08 ± 0.61 nM	Cc1cccc(C#Cc2ccc(-c3ccccc3)c(C#N)c2)n1 [Compound 21, 2-Phenyl-5-(6-methylpyridin-2-ylethynyl)benzonitrile]	
17 ± 2.2 nM	6.1 ± 1.95 nM	Cc1cccc(C#Cc2ccc(-c3cccc(F)c3)c(C#N)c2)n1 [Compound 22, 2-(3-Fluorophenyl)-5-(6-methylpyridin-2-ylethynyl)benzonitrile]	
